What all share (test): cell-based
The target of experiment [1] is hNav1.5 (Homo sapiens, UniProt Q14524). The note with it: IonWorks Quattro, read-out: IWQ Use Nav1.5.
The target of experiment [2] is hNav1.3 (Homo sapiens, UniProt Q9NY46). The note with it: IonWorks Quattro, read-out: IWQ Use Nav1.3. Background: Patch clamp records ionic current or voltage across a cell membrane.
The target of experiment [3] is hNav1.7 (Homo sapiens, UniProt Q15858). The format is cell-based.
Where [4] appears, read: IonWorks Quattro, use-dependent block, hNav1.7, read-out: IWQ Use Nav1.7.
The mark [5] stands for this setting: Table 25, IonWorks Quattro, use, […], read-out: IWQ Use Nav1.7.

Read-outs that look alike come from different tables or passages of the source. Positions of bridges follow the written chain, without caps; N, C: chain ends. Non-standard residues stand in square brackets, D forms with d. Residues, ends and D or L forms follow the SMILES beside them. Phe(4-I) = N[C@@H](Cc1ccc(I)cc1)C(=O)O

hNav1.7, sequence (Q15858 whole entry, looked up): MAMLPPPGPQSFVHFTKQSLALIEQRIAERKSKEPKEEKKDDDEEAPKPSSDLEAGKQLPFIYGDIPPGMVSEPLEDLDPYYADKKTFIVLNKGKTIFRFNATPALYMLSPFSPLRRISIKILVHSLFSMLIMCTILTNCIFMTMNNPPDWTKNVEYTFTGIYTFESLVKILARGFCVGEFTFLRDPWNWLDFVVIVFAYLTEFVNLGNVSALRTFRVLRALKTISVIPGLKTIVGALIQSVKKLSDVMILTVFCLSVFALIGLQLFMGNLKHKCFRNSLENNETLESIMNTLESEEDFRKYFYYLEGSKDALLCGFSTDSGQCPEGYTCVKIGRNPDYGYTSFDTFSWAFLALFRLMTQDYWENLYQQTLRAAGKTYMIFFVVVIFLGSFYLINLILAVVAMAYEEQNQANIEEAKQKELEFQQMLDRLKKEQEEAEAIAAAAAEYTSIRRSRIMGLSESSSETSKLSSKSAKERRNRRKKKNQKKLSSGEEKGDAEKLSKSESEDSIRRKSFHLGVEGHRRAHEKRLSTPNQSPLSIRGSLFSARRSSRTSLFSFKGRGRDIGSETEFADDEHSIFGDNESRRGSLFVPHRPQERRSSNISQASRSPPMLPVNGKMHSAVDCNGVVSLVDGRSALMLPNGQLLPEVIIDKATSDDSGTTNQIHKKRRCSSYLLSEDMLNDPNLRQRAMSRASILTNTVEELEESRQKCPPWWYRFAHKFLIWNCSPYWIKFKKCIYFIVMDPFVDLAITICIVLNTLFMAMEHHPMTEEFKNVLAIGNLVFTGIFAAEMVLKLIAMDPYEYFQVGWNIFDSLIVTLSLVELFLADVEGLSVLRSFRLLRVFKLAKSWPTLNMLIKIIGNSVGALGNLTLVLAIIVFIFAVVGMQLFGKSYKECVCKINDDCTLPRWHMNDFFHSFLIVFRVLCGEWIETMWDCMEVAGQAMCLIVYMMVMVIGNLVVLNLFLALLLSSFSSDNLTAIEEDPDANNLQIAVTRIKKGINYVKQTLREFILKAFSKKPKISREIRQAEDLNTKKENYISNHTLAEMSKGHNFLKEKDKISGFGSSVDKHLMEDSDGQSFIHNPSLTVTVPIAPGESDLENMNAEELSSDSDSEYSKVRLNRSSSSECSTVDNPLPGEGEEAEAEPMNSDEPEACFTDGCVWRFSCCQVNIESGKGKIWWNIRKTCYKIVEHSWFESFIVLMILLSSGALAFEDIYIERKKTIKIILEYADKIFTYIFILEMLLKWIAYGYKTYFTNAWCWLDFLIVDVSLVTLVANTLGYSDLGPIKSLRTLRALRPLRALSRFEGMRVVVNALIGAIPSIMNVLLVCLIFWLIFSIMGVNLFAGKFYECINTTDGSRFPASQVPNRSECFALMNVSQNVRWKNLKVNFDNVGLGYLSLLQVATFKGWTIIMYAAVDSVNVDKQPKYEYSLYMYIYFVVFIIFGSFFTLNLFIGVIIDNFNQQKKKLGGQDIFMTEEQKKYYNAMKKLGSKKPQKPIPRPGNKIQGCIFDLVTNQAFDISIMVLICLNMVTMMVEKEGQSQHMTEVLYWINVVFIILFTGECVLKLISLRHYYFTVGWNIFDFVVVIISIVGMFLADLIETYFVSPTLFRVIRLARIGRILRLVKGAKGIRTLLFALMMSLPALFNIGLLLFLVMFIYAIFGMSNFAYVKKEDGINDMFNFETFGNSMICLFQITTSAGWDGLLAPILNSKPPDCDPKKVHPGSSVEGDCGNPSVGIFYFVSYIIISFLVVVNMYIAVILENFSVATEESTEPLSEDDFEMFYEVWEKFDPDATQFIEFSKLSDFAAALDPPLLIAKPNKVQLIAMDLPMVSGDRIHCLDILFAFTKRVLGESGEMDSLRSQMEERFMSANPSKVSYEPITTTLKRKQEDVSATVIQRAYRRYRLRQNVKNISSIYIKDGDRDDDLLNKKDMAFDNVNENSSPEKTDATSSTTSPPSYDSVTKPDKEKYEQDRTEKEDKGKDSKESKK
hNav1.5, sequence (Q14524 whole entry, looked up): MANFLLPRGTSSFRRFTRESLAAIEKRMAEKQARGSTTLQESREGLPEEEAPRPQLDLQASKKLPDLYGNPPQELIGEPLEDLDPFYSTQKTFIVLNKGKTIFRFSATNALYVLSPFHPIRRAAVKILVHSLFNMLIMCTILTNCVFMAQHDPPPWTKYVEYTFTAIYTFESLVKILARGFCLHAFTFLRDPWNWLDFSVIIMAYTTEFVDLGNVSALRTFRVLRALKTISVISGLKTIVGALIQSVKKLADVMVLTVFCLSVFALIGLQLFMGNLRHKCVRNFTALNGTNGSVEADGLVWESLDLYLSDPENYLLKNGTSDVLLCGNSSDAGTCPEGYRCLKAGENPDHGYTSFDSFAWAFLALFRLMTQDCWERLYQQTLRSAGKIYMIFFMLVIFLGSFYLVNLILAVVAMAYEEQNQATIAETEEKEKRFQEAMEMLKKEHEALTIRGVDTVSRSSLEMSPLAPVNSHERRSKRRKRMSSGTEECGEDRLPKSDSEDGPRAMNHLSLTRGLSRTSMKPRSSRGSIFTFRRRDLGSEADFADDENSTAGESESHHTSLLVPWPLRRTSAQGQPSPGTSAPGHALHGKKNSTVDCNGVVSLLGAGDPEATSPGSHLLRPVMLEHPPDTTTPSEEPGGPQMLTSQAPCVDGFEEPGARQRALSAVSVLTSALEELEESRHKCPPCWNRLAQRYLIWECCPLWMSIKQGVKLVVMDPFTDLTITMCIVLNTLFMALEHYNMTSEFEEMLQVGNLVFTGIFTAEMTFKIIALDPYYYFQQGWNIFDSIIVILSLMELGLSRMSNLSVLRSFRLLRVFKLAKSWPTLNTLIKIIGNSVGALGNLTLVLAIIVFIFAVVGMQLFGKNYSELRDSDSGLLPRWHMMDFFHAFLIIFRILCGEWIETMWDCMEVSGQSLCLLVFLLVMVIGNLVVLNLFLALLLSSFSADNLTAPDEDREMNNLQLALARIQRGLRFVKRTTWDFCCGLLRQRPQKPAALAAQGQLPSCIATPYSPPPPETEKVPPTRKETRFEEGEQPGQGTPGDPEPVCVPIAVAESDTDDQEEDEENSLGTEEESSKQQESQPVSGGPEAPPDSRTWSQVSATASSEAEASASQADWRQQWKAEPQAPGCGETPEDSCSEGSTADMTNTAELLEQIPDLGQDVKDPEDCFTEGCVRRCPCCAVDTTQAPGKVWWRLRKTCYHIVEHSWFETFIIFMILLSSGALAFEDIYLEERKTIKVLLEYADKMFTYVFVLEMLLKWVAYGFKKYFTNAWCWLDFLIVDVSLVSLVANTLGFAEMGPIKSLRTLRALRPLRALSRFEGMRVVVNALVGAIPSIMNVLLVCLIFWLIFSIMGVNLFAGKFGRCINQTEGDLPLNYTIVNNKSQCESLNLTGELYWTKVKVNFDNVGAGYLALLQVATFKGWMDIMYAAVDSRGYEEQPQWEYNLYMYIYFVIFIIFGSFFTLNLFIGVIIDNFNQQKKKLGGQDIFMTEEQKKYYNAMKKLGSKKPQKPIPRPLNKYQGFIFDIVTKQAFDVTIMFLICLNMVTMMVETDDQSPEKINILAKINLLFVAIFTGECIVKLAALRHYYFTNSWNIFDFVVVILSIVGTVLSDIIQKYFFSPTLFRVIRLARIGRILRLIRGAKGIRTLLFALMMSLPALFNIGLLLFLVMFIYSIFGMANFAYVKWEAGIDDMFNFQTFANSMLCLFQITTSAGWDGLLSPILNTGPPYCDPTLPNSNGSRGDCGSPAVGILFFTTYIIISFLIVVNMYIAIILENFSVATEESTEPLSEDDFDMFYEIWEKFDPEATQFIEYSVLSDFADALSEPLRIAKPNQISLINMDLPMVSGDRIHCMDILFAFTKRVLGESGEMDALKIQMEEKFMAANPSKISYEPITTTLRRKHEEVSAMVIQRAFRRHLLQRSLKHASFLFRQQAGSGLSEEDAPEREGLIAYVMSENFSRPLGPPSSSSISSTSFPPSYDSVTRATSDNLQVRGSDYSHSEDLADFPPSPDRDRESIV

Take `CC[C@H](C)[C@@H]1NC(=O)[C@@H]2CSSC[C@@H]3NC(=O)[C@H](C(C)C)NC(=O)[C@H](CC(C)C)NC(=O)[C@H](CC(N)=O)NC(=O)[C@@H]4CCCN4C(=O)[C@H](CCCNC(=N)N)NC(=O)[C@H](CSSC[C@H](NC(=O)[C@@H](N)CC(=O)O)C(=O)N[C@@H](CC(C)C)C(=O)NCC(=O)N[C@@H](C)C(=O)N[C@@H](CC(C)C)C(=O)N[C@@H](CCCNC(=N)N)C(=O)N[C@@H](CCCCN)C(=O)N2)NC(=O)[C@H](CSSC[C@@H](C(=O)N[C@@H](CCCCN)C(=O)N[C@@H](Cc2ccc(O)cc2)C(=O)N[C@H](C(=O)N[C@@H](Cc2ccccc2)C(=O)N[C@@H](Cc2ccccc2)C(=O)O)C(C)C)NC(=O)[C@H](Cc2c[nH]c4ccccc24)NC(=O)[C@H](CCCNC(=N)N)NC(=O)[C@H](Cc2c[nH]cn2)NC(=O)[C@H]([C@@H](C)O)NC(=O)[C@H](CCCNC(=N)N)NC(=O)[C@H](CO)NC3=O)NC(=O)[C@H](CCCCN)NC(=O)[C@H](CC(=O)O)NC(=O)[C@H](CC(N)=O)NC(=O)[C@H](CC(=O)O)NC(=O)[C@@H]2CCCN2C1=O` [compound 818] (H-DCLGALRKCIPDNDKCCRPNLVCSRTHRWCKYVFF-OH; disulfide 2-17, 9-23, 16-30): the IC50 in experiment [1] (use-dependent block, hNav1.5) is above 5 µM; in experiment [2] (use-dependent block, hNav1.3), 0.8 µM; in experiment [3] (setting [4]), 2.3 µM.
Turning to `CC[C@H](C)[C@@H]1NC(=O)[C@@H]2CSSC[C@@H]3NC(=O)[C@H](C(C)C)NC(=O)[C@H](CC(C)C)NC(=O)[C@H](CC(N)=O)NC(=O)[C@@H]4CCCN4C(=O)[C@H](CCCNC(=N)N)NC(=O)[C@H](CSSC[C@H](NC(=O)[C@@H](N)CC(=O)O)C(=O)N[C@@H](CC(C)C)C(=O)NCC(=O)N[C@@H](Cc4ccccc4)C(=O)N[C@@H](CCSC)C(=O)N[C@@H](CCCNC(=N)N)C(=O)N[C@@H](CCCCN)C(=O)N2)NC(=O)[C@H](CSSC[C@@H](C(=O)N[C@@H](CCCCN)C(=O)N[C@@H](CC(C)C)C(=O)N[C@H](C(=O)N[C@@H](Cc2ccccc2)C(N)=O)C(C)C)NC(=O)[C@H](Cc2c[nH]c4ccccc24)NC(=O)[C@H](CCCCN)NC(=O)[C@H](Cc2c[nH]cn2)NC(=O)[C@H]([C@@H](C)O)NC(=O)[C@H](CCCNC(=N)N)NC(=O)[C@H](CO)NC3=O)NC(=O)[C@H](CCCCN)NC(=O)[C@H](CC(=O)O)NC(=O)[C@H](CC(N)=O)NC(=O)[C@H](CC(=O)O)NC(=O)[C@@H]2CCCN2C1=O` [compound 373] (H-DCLGFMRKCIPDNDKCCRPNLVCSRTHKWCKLVF-NH2; disulfide 2-17, 9-23, 16-30), the IC50 in experiment [1] (Table 25, use, […]) was 8.83 µM; in experiment [2] (Table 25, use, […]), 0.08 µM; in experiment [3] (setting [5]) it was 0.12 µM.
Consider `CC[C@H](C)[C@@H]1NC(=O)[C@@H]2CSSC[C@@H]3NC(=O)[C@H](C(C)C)NC(=O)[C@H](CC(C)C)NC(=O)[C@H](CC(N)=O)NC(=O)[C@@H]4CCCN4C(=O)[C@H](CCCNC(=N)N)NC(=O)[C@H](CSSC[C@H](NC(=O)[C@@H](N)CC(=O)O)C(=O)N[C@@H](CC(C)C)C(=O)NCC(=O)N[C@H](C)C(=O)N[C@@H](CCSC)C(=O)N[C@@H](CCCNC(=N)N)C(=O)N[C@@H](CCCCN)C(=O)N2)NC(=O)[C@H](CSSC[C@@H](C(=O)N[C@@H](CCCCN)C(=O)N[C@@H](Cc2ccc(O)cc2)C(=O)N[C@H](C(=O)N[C@@H](Cc2ccccc2)C(N)=O)C(C)C)NC(=O)[C@H](Cc2c[nH]c4ccccc24)NC(=O)[C@H](CCCCN)NC(=O)[C@H](Cc2c[nH]cn2)NC(=O)[C@H]([C@@H](C)O)NC(=O)[C@H](CCCNC(=N)N)NC(=O)[C@H](CO)NC3=O)NC(=O)[C@H](CCCCN)NC(=O)[C@H](CC(=O)O)NC(=O)[C@H](CC(N)=O)NC(=O)[C@H](CC(=O)O)NC(=O)[C@@H]2CCCN2C1=O` [compound 647], for which the IC50 in experiment [1] (use-dependent protocol, hNav1.5) is above 5 µM; in experiment [2] (use-dependent protocol, hNav1.3) it was above 5 µM; in experiment [3] it was 4.5 µM.
Consider `CC[C@H](C)[C@@H]1NC(=O)[C@@H]2CSSC[C@@H]3NC(=O)[C@H](C(C)C)NC(=O)[C@H](CC(C)C)NC(=O)[C@H](CC(N)=O)NC(=O)[C@@H]4CCCN4C(=O)[C@H](CCCNC(=N)N)NC(=O)[C@H](CSSC[C@H](NC(=O)[C@@H](N)CC(=O)O)C(=O)N[C@@H](CC(C)C)C(=O)NCC(=O)N[C@@H](Cc4ccccc4)C(=O)N[C@@H](CCSC)C(=O)N[C@@H](CCCNC(=N)N)C(=O)N[C@@H](CCCCN)C(=O)N2)NC(=O)[C@H](CSSC[C@@H](C(=O)N[C@@H](CCCCN)C(=O)N[C@@H](Cc2ccc(I)cc2)C(=O)N[C@H](C(=O)N[C@@H](Cc2ccccc2)C(N)=O)C(C)C)NC(=O)[C@H](Cc2c[nH]c4ccccc24)NC(=O)[C@H](CCCCN)NC(=O)[C@H](Cc2c[nH]cn2)NC(=O)[C@H]([C@@H](C)O)NC(=O)[C@H](CCCNC(=N)N)NC(=O)[C@H](CO)NC3=O)NC(=O)[C@H](CCCCN)NC(=O)[C@H](CC(=O)O)NC(=O)[C@H](CC(N)=O)NC(=O)[C@H](CC(=O)O)NC(=O)[C@@H]2CCCN2C1=O` [compound 381] (H-DCLGFMRKCIPDNDKCCRPNLVCSRTHKWCK[Phe(4-I)]VF-NH2; disulfide 2-17, 9-23, 16-30), for which the IC50 in experiment [1] (Table 25, use, […]) was 4.44 µM; in experiment [2] (Table 25, use, […]), 0.01 µM; in experiment [3] (setting [5]) it was 0.03 µM.
`CC[C@H](C)[C@@H]1NC(=O)[C@@H]2CSSC[C@@H]3NC(=O)[C@H](C(C)C)NC(=O)[C@H](CC(C)C)NC(=O)[C@H](CC(N)=O)NC(=O)[C@@H]4CCCN4C(=O)[C@H](CCCNC(=N)N)NC(=O)[C@H](CSSC[C@H](NC(=O)[C@@H](N)CC(=O)O)C(=O)N[C@@H](CC(C)C)C(=O)NCC(=O)N[C@@H](C)C(=O)N[C@@H](CC(C)C)C(=O)N[C@@H](CCCNC(=N)N)C(=O)N[C@@H](CCCCN)C(=O)N2)NC(=O)[C@H](CSSC[C@@H](C(=O)N[C@@H](CCCCN)C(=O)N[C@@H](Cc2ccc(O)cc2)C(=O)N[C@H](C(=O)N[C@@H](Cc2ccccc2)C(=O)O)C(C)C)NC(=O)[C@H](Cc2c[nH]c4ccccc24)NC(=O)[C@H](CCC(N)=O)NC(=O)[C@H](Cc2c[nH]cn2)NC(=O)[C@H]([C@@H](C)O)NC(=O)[C@H](CCCNC(=N)N)NC(=O)[C@H](CO)NC3=O)NC(=O)[C@H](CCCCN)NC(=O)[C@H](CC(=O)O)NC(=O)[C@H](CC(N)=O)NC(=O)[C@H](CC(=O)O)NC(=O)[C@@H]2CCCN2C1=O` [compound 858] (H-DCLGALRKCIPDNDKCCRPNLVCSRTHQWCKYVF-OH; disulfide 2-17, 9-23, 16-30): the IC50 was above 5 µM in experiment [1] (use-dependent block, hNav1.5); above 5 µM in experiment [2] (use-dependent block, hNav1.3); above 5 µM in experiment [3] (setting [4]).
